This note sets out measurements from ChEMBL document CHEMBL5465560, “Selectivity Literature for EUbOPEN Chemogenomic Library” (2024).

The target of assay [1] is Phosphatidylinositol 4,5-bisphosphate 3-kinase catalytic subunit beta isoform (Homo sapiens) (UniProt P42338). Put plainly: Selectivity interaction (Adapta Assay) EUB0001632a PIK3CB. The following applies: at 10 µM.
For assay [2], the target named is Receptor-interacting serine/threonine-protein kinase 2 (Homo sapiens, UniProt O43353). Put plainly: Selectivity interaction (Ambit KINOMEscan and KiNATiv profiling in Jurkat cells) EUB0000090b RIPK2. As to conditions: at 1 µM. It is filed as cell-based.
For assay [3], the target named is Serine/threonine-protein kinase 16 (Homo sapiens, UniProt O75716). As to the kind of experiment: Selectivity interaction (Ambit KINOMEscan and KiNATiv profiling in Jurkat cells) EUB0000090b STK16. The format is cell-based. The following applies: at 1 µM.
Assay [4] has as its target T1, Tyrosine-protein kinase ITK/TSK (Homo sapiens) (UniProt Q08881).
T1 sequence (whole entry): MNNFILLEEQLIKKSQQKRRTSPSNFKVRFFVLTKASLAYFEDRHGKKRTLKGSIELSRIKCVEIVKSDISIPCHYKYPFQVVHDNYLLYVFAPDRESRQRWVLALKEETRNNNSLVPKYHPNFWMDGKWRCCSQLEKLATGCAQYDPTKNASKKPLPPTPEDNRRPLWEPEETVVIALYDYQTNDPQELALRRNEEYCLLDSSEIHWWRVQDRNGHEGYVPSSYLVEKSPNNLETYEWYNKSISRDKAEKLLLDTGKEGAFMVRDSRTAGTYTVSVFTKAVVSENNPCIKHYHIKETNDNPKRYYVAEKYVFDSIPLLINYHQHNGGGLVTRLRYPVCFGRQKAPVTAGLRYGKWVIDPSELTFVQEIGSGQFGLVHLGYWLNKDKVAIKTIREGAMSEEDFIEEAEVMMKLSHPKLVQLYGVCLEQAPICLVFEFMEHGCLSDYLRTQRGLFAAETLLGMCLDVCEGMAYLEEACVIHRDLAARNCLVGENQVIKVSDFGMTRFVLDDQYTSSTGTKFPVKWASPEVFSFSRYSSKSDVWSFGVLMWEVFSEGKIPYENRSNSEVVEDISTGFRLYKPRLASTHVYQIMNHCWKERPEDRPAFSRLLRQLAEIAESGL
The following applies: at 10 µM.

Assay [5] deals with Platelet-derived growth factor receptor beta (Homo sapiens, UniProt P09619). Put plainly: Selectivity interaction (KinomeScan (DiscoverX)) EUB0001079a PDGFRB. As to conditions: at 1 µM.
The target in assay [6] is T2, Tyrosine-protein kinase receptor TYRO3 (Homo sapiens) (UniProt Q06418).
T2 sequence (whole entry): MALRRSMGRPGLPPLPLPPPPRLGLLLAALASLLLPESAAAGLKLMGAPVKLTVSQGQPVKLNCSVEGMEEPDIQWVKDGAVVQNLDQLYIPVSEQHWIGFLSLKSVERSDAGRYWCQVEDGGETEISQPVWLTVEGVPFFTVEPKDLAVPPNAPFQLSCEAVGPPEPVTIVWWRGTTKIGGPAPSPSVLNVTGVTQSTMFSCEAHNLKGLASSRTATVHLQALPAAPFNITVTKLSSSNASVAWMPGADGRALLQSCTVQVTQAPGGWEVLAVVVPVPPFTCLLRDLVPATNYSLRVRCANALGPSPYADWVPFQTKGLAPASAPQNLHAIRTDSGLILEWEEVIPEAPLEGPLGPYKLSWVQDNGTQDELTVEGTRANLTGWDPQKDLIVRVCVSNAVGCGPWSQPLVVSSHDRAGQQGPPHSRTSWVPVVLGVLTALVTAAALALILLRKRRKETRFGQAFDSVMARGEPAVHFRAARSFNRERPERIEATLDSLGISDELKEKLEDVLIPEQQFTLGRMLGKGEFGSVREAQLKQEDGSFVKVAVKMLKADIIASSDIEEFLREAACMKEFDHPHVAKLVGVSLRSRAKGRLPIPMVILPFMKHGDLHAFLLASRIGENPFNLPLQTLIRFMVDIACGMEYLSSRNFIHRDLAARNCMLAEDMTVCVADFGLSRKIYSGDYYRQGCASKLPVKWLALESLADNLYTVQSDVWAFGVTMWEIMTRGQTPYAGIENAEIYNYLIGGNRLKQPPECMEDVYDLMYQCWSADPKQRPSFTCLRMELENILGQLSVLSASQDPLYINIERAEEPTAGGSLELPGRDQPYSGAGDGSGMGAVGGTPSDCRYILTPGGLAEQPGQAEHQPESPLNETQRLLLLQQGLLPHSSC
Put plainly: Selectivity interaction (KinomeScan (DiscoverX)) EUB0001619a TYRO3. The following applies: at 1 µM.

Assay [7] deals with Tyrosine-protein kinase Lyn (Homo sapiens, UniProt P07948). As to the kind of experiment: Selectivity interaction (ActivX KiNativ screen (kinase selectivity in THP-1 cell lysates)) EUB0000639a LYN. As to conditions: lysate, at 1 µM. The format is subcellular.
In assay [8] the target is Serine/threonine-protein kinase N1 (Homo sapiens, UniProt Q16512). Put plainly: Selectivity interaction (ActivX KiNativ screen (kinase selectivity in THP-1 cell lysates)) EUB0000639a PKN1. It is filed as subcellular. As to conditions: lysate, at 0.01 µM.
Assay [9] addresses Serine/threonine-protein kinase mTOR (Homo sapiens, UniProt P42345). Put plainly: Selectivity interaction (KinomeScan (DiscoverX)) EUB0001049a MTOR. As to conditions: at 1 µM.
For assay [10], the target named is Bromodomain-containing protein 2 (Homo sapiens) (UniProt P25440). Put plainly: Selectivity interaction (Human bromodomain panel (DSF assay)) EUB0000233b BRD2.
For assay [11], the target named is Estrogen receptor (Homo sapiens) (UniProt P03372). As to the kind of experiment: Selectivity interaction (Eurofins CEREP Diversity Profile (receptors and ion channels)) EUB0000279b ESR1. The following applies: at 10 µM.
Sequence of Estrogen receptor (Homo sapiens) (P03372 whole entry): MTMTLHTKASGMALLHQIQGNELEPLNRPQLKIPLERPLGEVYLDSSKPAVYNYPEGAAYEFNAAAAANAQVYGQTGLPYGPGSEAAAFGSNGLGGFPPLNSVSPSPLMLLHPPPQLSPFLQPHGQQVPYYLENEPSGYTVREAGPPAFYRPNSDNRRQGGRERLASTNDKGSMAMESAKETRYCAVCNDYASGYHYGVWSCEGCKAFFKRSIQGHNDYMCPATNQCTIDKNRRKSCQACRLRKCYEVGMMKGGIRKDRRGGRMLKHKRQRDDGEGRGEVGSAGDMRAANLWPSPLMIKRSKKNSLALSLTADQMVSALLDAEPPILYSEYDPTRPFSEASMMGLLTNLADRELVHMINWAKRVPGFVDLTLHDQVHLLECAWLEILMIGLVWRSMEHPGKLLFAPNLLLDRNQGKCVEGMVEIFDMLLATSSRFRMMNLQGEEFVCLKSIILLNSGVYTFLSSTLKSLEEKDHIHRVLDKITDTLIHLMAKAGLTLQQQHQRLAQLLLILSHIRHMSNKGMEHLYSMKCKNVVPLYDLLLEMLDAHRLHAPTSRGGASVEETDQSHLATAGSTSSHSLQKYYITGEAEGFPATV

Sequence of Receptor-interacting serine/threonine-protein kinase 2 (O43353 whole entry): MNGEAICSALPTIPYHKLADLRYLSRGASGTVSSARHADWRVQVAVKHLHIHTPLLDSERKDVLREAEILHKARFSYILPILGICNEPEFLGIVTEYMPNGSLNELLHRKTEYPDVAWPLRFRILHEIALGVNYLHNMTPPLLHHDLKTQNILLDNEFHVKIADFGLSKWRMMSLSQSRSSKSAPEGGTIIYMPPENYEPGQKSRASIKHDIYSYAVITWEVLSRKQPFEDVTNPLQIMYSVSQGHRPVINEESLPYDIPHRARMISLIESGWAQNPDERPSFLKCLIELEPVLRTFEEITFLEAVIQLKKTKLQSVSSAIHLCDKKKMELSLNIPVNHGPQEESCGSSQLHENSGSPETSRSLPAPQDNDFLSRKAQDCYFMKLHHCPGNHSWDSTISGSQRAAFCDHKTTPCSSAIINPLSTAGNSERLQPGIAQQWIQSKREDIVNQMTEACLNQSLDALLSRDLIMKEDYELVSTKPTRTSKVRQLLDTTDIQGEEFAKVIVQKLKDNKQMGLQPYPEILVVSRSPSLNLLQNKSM
Sequence of Platelet-derived growth factor receptor beta (P09619 whole entry): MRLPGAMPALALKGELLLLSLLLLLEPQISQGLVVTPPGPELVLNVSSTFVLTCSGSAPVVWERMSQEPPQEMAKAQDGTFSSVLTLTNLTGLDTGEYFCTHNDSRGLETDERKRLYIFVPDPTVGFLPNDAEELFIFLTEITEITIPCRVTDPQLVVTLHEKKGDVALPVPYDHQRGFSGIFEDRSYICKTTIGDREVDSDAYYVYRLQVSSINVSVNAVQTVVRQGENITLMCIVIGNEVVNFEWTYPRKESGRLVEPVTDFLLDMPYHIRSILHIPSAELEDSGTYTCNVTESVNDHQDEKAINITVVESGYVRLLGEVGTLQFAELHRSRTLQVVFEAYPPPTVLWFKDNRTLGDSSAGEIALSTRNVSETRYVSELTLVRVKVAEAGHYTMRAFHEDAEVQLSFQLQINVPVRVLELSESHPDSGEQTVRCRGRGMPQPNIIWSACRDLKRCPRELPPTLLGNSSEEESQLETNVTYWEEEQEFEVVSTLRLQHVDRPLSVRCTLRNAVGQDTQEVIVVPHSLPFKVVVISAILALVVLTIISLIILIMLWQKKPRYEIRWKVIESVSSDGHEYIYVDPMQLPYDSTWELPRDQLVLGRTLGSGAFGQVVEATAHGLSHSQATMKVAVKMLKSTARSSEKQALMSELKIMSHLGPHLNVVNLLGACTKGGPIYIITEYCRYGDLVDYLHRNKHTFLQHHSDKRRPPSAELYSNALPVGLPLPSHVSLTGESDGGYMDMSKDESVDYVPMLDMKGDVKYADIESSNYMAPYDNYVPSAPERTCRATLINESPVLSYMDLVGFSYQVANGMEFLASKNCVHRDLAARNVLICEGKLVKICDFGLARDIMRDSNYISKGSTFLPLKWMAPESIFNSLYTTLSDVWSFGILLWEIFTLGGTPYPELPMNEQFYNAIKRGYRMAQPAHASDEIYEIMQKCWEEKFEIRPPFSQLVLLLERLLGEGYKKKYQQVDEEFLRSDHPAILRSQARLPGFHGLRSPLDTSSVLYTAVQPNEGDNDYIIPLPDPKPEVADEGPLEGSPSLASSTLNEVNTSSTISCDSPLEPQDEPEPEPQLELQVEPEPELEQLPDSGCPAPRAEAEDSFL
Sequence of Tyrosine-protein kinase Lyn (P07948 2-512 limits assumed): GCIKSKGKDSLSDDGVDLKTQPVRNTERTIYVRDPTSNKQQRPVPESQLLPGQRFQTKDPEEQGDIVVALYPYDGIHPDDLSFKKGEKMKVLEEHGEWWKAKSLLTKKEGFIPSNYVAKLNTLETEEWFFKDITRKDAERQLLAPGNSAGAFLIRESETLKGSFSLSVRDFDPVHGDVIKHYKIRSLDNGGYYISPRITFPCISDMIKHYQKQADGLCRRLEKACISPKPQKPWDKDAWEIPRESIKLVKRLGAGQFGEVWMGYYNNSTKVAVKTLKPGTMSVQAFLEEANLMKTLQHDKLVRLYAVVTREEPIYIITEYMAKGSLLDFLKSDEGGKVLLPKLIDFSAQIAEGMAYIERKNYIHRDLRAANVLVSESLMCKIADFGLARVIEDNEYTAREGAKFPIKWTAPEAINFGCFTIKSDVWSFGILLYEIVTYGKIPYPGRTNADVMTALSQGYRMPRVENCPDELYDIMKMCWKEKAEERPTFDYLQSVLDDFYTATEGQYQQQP
Sequence of Serine/threonine-protein kinase 16 (O75716 whole entry): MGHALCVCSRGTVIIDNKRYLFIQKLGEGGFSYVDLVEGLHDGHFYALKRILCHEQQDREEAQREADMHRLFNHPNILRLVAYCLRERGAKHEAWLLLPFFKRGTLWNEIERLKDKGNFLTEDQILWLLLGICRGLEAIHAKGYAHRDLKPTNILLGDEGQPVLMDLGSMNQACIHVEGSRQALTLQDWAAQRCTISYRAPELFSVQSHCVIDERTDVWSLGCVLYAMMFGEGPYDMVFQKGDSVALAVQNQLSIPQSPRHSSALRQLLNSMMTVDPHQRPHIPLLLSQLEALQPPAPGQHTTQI
Sequence of Serine/threonine-protein kinase N1 (Q16512 2-942 limits assumed): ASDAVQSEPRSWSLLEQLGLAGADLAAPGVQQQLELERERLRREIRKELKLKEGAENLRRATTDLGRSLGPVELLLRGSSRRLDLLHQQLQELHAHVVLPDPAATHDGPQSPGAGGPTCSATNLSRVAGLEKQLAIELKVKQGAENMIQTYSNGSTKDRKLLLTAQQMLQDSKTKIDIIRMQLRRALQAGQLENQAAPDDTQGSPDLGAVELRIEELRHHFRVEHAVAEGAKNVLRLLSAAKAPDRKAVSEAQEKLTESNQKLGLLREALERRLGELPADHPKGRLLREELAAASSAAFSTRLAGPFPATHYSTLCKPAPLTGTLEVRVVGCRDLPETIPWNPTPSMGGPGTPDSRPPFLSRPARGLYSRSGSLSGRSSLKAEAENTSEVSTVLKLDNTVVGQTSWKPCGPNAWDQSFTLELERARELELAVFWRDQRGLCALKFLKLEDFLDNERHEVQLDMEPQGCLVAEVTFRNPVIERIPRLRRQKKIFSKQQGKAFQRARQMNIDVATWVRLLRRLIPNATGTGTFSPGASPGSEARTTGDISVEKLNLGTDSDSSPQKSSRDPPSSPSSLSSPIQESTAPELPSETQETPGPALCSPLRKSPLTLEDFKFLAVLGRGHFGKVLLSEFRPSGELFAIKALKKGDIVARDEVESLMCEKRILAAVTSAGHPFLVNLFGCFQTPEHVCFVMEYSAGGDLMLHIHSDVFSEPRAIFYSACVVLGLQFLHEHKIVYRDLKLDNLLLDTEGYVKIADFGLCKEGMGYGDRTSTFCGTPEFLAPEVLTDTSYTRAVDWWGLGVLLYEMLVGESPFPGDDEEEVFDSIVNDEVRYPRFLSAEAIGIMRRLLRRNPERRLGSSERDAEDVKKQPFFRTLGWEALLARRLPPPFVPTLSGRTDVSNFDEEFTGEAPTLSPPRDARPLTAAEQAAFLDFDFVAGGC
Sequence of Bromodomain-containing protein 2 (Homo sapiens) (P25440 whole entry, looked up): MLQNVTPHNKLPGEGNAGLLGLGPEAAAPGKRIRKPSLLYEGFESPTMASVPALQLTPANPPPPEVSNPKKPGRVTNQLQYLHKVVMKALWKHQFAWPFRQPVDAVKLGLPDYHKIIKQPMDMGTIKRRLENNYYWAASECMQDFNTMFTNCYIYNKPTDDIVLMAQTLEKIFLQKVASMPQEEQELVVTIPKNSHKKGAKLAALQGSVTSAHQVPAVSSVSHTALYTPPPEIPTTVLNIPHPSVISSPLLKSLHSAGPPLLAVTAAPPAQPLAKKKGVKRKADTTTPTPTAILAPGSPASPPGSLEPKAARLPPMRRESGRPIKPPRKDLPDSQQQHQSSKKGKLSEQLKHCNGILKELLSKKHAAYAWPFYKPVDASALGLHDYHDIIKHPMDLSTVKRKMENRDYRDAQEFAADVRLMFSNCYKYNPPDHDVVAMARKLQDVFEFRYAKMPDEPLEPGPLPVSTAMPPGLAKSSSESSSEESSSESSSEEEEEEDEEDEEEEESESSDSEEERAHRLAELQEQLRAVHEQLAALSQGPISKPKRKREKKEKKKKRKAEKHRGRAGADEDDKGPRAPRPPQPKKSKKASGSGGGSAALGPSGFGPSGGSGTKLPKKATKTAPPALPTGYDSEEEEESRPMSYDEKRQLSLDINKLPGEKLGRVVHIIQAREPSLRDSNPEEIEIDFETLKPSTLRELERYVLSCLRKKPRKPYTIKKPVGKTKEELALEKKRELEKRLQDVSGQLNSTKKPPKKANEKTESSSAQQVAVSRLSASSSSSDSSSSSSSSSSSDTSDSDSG

Consider `Cn1cc(-n2cnc3c(NCc4nc5cc(Cl)c(Cl)cc5[nH]4)nc(N4CCOCC4)nc32)cn1`, for which, in assay [1], the % of inhibition was -11.2%. Take `CN(C)C/C=C/C(=O)Nc1ccc(C(=O)N2CCCC(Nc3ncc(Cl)c(-c4c[nH]c5ccccc45)n3)C2)cc1` (stereo unspecified): the % of control in assay [2] worked out at 88%; in assay [3], 6.2%. `Cc1cc([C@@H](C)Nc2ccccc2C(=O)O)c2nc(N3CCOCC3)cc(=O)n2c1` [AZD-6482]: the % of control in assay [4] stood at 98%. In assay [5], `Nc1cnc(N2CCc3cc(S(=O)(=O)Nc4c(F)cc(Cl)cc4F)cc(N4CCCC4=O)c32)nc1` [TP-020n] had a % of control of 100%.

In turn, `N#Cc1cccc(-c2c[nH]c3ncnc(N4CCOCC4)c23)c1` came in with a % of control in [6] of 100%. For `CC[C@@H]1[C@H](F)C(=O)N[C@@H]1COc1nccc2cc(C(N)=O)c(OC)cc12` [ZIMLOVISERTIB], the % of inhibition in assay [7] is -14.1%; in [8], -9.7%. `COc1cc(Nc2nc(C)cc(-c3cnn4nc(OC)ccc34)n2)cc(C(F)(F)F)c1` came in with a % of control in [9] of 100%. For the molecule `CN(C)CCCOc1ccc(-c2cc(NCCCn3cccn3)nc(S(C)(=O)=O)n2)cc1`, in [10], the dTM was less than 2 K. In assay [11], `CC(=O)c1cc(-c2ccccc2OCC2CC2)c2ncccn12` gave a % of control of 98%.
